Assay results reported in patent publication US10676721B2, “Bacteriophages expressing antimicrobial peptides and uses thereof” (priority 2009, dated 2020).

Key:
E. coli [1] = assay: MIC of AMPs against E. coli; assay type: cell-based, Escherichia coli; conditions: Table 3; two values per AMP
S. aureus [2] = assay: MIC of AMPs / enzyme against S. aureus; assay type: cell-based, Staphylococcus aureus; conditions: Table 3; two values per AMP
[3] = Toxicity of AMPs (Table 3, method not described); parameters: unit not given here; conditions: two values per AMP
E. coli [4] = assay: Exponential phase OD600 AMP killing assay on E. coli; assay type: cell-based, Escherichia coli; conditions: concentration not singled out (192 and 640 μg/mL tested)
Procedure: (§1) 1. Inoculate the appropriate host strain in LB medium with the appropriate selective marker and incubate with shaking at 37° C. overnight. 2. Re-dilute the culture 1:5000 into LB with the appropriate selective marker and grow at 300 rpm and 37° C. to an OD600 between 0.2 and 0.4.3. Add the appropriate amount of AMP or bacteriophage to the wells, running at least duplicate samples, preferably triplicates, and always carrying a no treatment control to control for phage contamination. 4. Sample points every 5 minutes using an automated 96-well assay plate capable heated and shaking plate reader.
(§2) The inventors tested a panel of AMPs, shown in Table 3 to assess which AMP has the greatest bacteriocidality against both E. coli and S. aureus. Cultures were grown to an optical density measured at 600 nm between 0.3-0.6 and then the AMPs were added in the respective concentrations. The decrease in OD600 is assessed as the killing of bacterial cells by the AMP, if the OD600 drops, other results cannot be inferred, as the information gained is from the OD600 is limited. The abbreviation SA denotes tests on Staphylococcus aureus, whereas EC denotes Escherichia coli bacteria. Experiments were run in duplicate. The nomenclature of these graphs follows the pattern: Strain.AMP.Concentration(μg/mL).replicate #(1 or 2). […]

S. aureus [5] = assay: Exponential phase OD600 AMP killing assay on S. aureus; assay type: cell-based, Staphylococcus aureus; conditions: concentration not singled out (192 and 640 μg/mL tested)
Procedure: as §1, §2

With “J589_A7: AMP, RLCRIVVIRVCR (SEQ ID NO: 10) (listed as Bos taurus)” the MIC E. coli (E. coli [1]) was 64 µg/mL, the MIC S. aureus (S. aureus [2]) was 64 µg/mL and the Toxicity [3] was 256. For the same substance, the “bacteriocidal / bacteriostatic action on E. coli (OD600)” value (E. coli [4]) was “intermediate bacteriocidal action” and the “bacteriocidal / bacteriostatic action on S. aureus (OD600)” value (S. aureus [5]) was “no effects”.
